These are literature values, as cited in PubChem BioAssay AID1259409 (Chemical Carcinogenesis Research Information System (CCRIS), 2018).

This data set concerns rodent chemically induced tumor inhibition, incidence and multiplicity. In words: CCRIS tumor inhibitor studies. The note with it: Route [Inhibitor]: ORAL, Promoter: NONE USED.

In the case of `CCNC(=O)/C=C(C)/C=C/C=C(C)/C=C/C1=C(C)CCCC1(C)C`, the “tumour outcome (control, treated, inhibition, significance)” value is listed as 10/39 (26%), 6/30 (20%), 23%, not significant (Carcinogen: 1,2-DIMETHYLHYDRAZINE, 540-73-8, Dose [Inhibitor]: 2 MMOL/KG DIET DAILY STARTING 12 D AFTER CARCINOGEN TREATMENT THROUGH ABOUT 8 MO AFTER CARCINOGEN DOSE (STUDY DURATION:, Species: RAT, Strain/Sex: F344/MALE, Target Tissue: Type of Lesion: COLON: ADENOCARCINOMA, Dose [Carcinogen]: 150 MG/KG BW ONCE); 23/39 (59%), 15/30 (50%), 15%, not significant (Carcinogen: 1,2-DIMETHYLHYDRAZINE, 540-73-8, Dose [Inhibitor]: 2 MMOL/KG DIET DAILY STARTING 12 D AFTER CARCINOGEN TREATMENT THROUGH ABOUT 8 MO AFTER CARCINOGEN DOSE (STUDY DURATION:, Species: RAT, Strain/Sex: F344/MALE, Target Tissue: Type of Lesion: COLON: ADENOMA, Dose [Carcinogen]: 150 MG/KG BW ONCE); 105/200 (53%), 63/100 (63%), -19%, p 0.0843 (Carcinogen: N-(4-(5-NITRO-2-FURYL)-2-THIAZOLYL)FORMAMIDE, 24554-26-5, Dose [Inhibitor]: 327 MG/KG DIET DAILY FOR 39 WK STARTING ONE WK FOLLOWING THE TERMINATION OF CARCINOGEN ADMINISTRATION (STUDY DURATION: 5, Species: RAT, Strain/Sex: F344/FEMALE, Target Tissue: Type of Lesion: URINARY BLADDER: CARCINOMA, Dose [Carcinogen]: 2 G/KG IN DIET DAILY FOR 10 WK); 15/200 (8%), 1/100 (1%), 88%, p 0.0182 (Carcinogen: N-(4-(5-NITRO-2-FURYL)-2-THIAZOLYL)FORMAMIDE, 24554-26-5, Dose [Inhibitor]: 327 MG/KG DIET DAILY FOR 39 WK STARTING ONE WK FOLLOWING THE TERMINATION OF CARCINOGEN ADMINISTRATION (STUDY DURATION: 5, Species: RAT, Strain/Sex: F344/FEMALE, Target Tissue: Type of Lesion: URINARY BLADDER: PAPILLOMA, Dose [Carcinogen]: 2 G/KG IN DIET DAILY FOR 10 WK); 15/200 (8%), 1/100 (1%), 87%, p=0.0182 (Carcinogen: N-(4-(5-NITRO-2-FURYL)-2-THIAZOLYL)FORMAMIDE, 24554-26-5, Dose [Inhibitor]: 327 MG/KG/D IN DIET FOR 39 WK STARTING 1 WK POST CARCINOGEN DOSE TREATMENT (STUDY DURATION: 50 WK), Species: RAT, Strain/Sex: F344/FEMALE, Target Tissue: Type of Lesion: URINARY BLADDER: PAPILLOMA, Dose [Carcinogen]: 2 G/KG/D IN DIET FOR 10 WK); 105/200 (53%), 63/100 (63%), -19%, p=0.0843 (Carcinogen: N-(4-(5-NITRO-2-FURYL)-2-THIAZOLYL)FORMAMIDE, 24554-26-5, Dose [Inhibitor]: 327 MG/KG/D IN DIET FOR 39 WK STARTING 1 WK POST CARCINOGEN TREATMENT (STUDY DURATION: 50 WK), Species: RAT, Strain/Sex: F344/FEMALE, Target Tissue: Type of Lesion: URINARY BLADDER: CARCINOMA, Dose [Carcinogen]: 2 G/KG/D IN DIET FOR 10 WK). Besides, the “tumour outcome (control, treated, inhibition, significance)” value (Carcinogen: N-(4-(5-NITRO-2-FURYL)-2-THIAZOLYL)FORMAMIDE, 24554-26-5, Dose [Inhibitor]: 654 MG/KG DIET DAILY FOR 39 WK STARTING ONE WK FOLLOWING THE TERMINATION OF CARCINOGEN ADMINISTRATION (STUDY DURATION: 5, Species: RAT, Strain/Sex: F344/FEMALE, Target Tissue: Type of Lesion: URINARY BLADDER: CARCINOMA, Dose [Carcinogen]: 2 G/KG IN DIET DAILY FOR 10 WK) is 105/200 (53%), 78/100 (78%), -47%, p 0.00002; the “tumour outcome (control, treated, inhibition, significance)” value (Carcinogen: N-(4-(5-NITRO-2-FURYL)-2-THIAZOLYL)FORMAMIDE, 24554-26-5, Dose [Inhibitor]: 654 MG/KG DIET DAILY FOR 39 WK STARTING ONE WK FOLLOWING THE TERMINATION OF CARCINOGEN ADMINISTRATION (STUDY DURATION: 5, Species: RAT, Strain/Sex: F344/FEMALE, Target Tissue: Type of Lesion: URINARY BLADDER: PAPILLOMA, Dose [Carcinogen]: 2 G/KG IN DIET DAILY FOR 10 WK) was 15/200 (8%), 12/100 (12%), -50%, p 0.1989; the “tumour outcome (control, treated, inhibition, significance)” value (Carcinogen: N-(4-(5-NITRO-2-FURYL)-2-THIAZOLYL)FORMAMIDE, 24554-26-5, Dose [Inhibitor]: 654 MG/KG IN DIET FOR 39 WK STARTING 1 WK POST CARCINOGEN TREATMENT (STUDY DURATION: 50 WK), Species: RAT, Strain/Sex: F344/FEMALE, Target Tissue: Type of Lesion: URINARY BLADDER: PAPILLOMA, Dose [Carcinogen]: 2 G/KG/D IN DIET FOR 10 WK) is on record as 15/200 (7.5%), 12/100 (12%), -60%, p=0.1989; the “tumour outcome (control, treated, inhibition, significance)” value (Carcinogen: N-(4-(5-NITRO-2-FURYL)-2-THIAZOLYL)FORMAMIDE, 24554-26-5, Dose [Inhibitor]: 654 MG/KG/D IN DIET FOR 39 WK STARTING 1 WK POST CARCINOGEN TREATMENT (STUDY DURATION: 50 WK), Species: RAT, Strain/Sex: F344/FEMALE, Target Tissue: Type of Lesion: URINARY BLADDER: CARCINOMA, Dose [Carcinogen]: 2 G/KG/D IN DIET FOR 10 WK) is on record as 105/200 (53%), 78/100 (78%), -47%, p=0.00002; the “tumour outcome (control, treated, inhibition, significance)” value (Carcinogen: N-BUTYL-N-(4-HYDROXYBUTYL)NITROSAMINE, 3817-11-6, Dose [Inhibitor]: 0.5 MMOL/KG DIET DAILY FOR 16 WK STARTING 7 D AFTER FINAL CARCINOGEN DOSE (STUDY DURATION: 6 MO), Species: MOUSE, Strain/Sex: B6D2F1/MALE, Target Tissue: Type of Lesion: URINARY BLADDER: CARCINOMA, Dose [Carcinogen]: 5 OR 10 MG 2/WK FOR 9 WK) was 36/97 (37%), 25/76 (33%), 11%, not significant; the “tumour outcome (control, treated, inhibition, significance)” value (Carcinogen: N-BUTYL-N-(4-HYDROXYBUTYL)NITROSAMINE, 3817-11-6, Dose [Inhibitor]: 1 MMOL/KG DIET DAILY FOR 16 WK STARTING 7 D AFTER FINAL CARCINOGEN DOSE (STUDY DURATION: 6 MO), Species: MOUSE, Strain/Sex: B6D2F1/MALE, Target Tissue: Type of Lesion: URINARY BLADDER: CARCINOMA, Dose [Carcinogen]: 5 OR 10 MG 2/WK FOR 9 WK) is recorded as 36/97 (37%), 16/75 (21%), 43%, p<0.025. Also, the “tumour outcome (control, treated, inhibition, significance)” value by setting is: (Carcinogen: N-BUTYL-N-(4-HYDROXYBUTYL)NITROSAMINE, 3817-11-6, Dose [Inhibitor]: 1.5 MMOL/KG DIET DAILY FOR 153 D STARTING ONE WK AFTER THE FINAL CARCINOGEN DOSE (STUDY DURATION: 210 D), Species: MOUSE, Strain/Sex: BDF1/MALE, Target Tissue: Type of Lesion: URINARY BLADDER: TRANSITIONAL CELL CARCINOMA, Dose [Carcinogen]: 7.5 MG 1/WK FOR 8 WK) 35/99 (35%), 21/99 (21%), 40%, p<0.05; (Carcinogen: N-BUTYL-N-(4-HYDROXYBUTYL)NITROSAMINE, 3817-11-6, Dose [Inhibitor]: 1.5 MMOL/KG IN DIET FOR 153 D STARTING 1 WK AFTER LAST CARCINOGEN DOSE (STUDY DURATION: 210 D), Species: MOUSE, Strain/Sex: DBF1/MALE, Target Tissue: Type of Lesion: URINARY BLADDER: TRANSITIONAL CELL CARCINOMA, Dose [Carcinogen]: 7.5 MG 1/WK FOR 8 WK) 35/99 (35%), 21/99 (21%), 40%, p<0.05; (Carcinogen: N-BUTYL-N-(4-HYDROXYBUTYL)NITROSAMINE, 3817-11-6, Dose [Inhibitor]: 2 MMOL/KG DIET DAILY FOR 17 WK STARTING 7 D AFTER FINAL CARCINOGEN DOSE (STUDY DURATION: 6 MO), Species: RAT, Strain/Sex: F344/MALE, Target Tissue: Type of Lesion: URINARY BLADDER: TRANSITIONAL CELL CARCINOMA, Dose [Carcinogen]: 200 MG 2/WK FOR 8 WK) 55/60 (92%), 25/30 (83%), 10%, not significant; (Carcinogen: N-BUTYL-N-(4-HYDROXYBUTYL)NITROSAMINE, 3817-11-6, Dose [Inhibitor]: 2 MMOL/KG DIET DAILY FOR 19 WK STARTING 7 D AFTER FINAL CARCINOGEN DOSE (STUDY DURATION: 6 MO), Species: RAT, Strain/Sex: F344/FEMALE, Target Tissue: Type of Lesion: URINARY BLADDER: TRANSITIONAL CELL CARCINOMA, Dose [Carcinogen]: 150 MG 2/WK FOR 6 WK) 28/80 (35%), 5/40 (12%), 66%, p<0.01; (Carcinogen: N-METHYL-N-NITROSOUREA, 684-93-5, Dose [Inhibitor]: 2 MMOL/KG DIET DAILY STARTING 12 D AFTER CARCINOGEN TREATMENT THROUGH ABOUT 8 MO AFTER CARCINOGEN DOSE (STUDY DURATION:, Species: RAT, Strain/Sex: F344/MALE, Target Tissue: Type of Lesion: COLON: ADENOCARCINOMA, Dose [Carcinogen]: 2.5 MG 1/WK FOR 2 WK) 5/39 (13%), 9/30 (30%), -131%, not significant.
